Measurements published in patent US20250304623A1, “PEPTIDES FOR INTRACELLULAR DELIVERY” (UNIVERSIDADE DE SANTIAGO DE COMPOSTELA, priority 2022, published 2025).
*: point of attachment. NHNH2 = NN*

Legend:
Type in all cases: cell-based
ARPE19 cells = assay: RLuc pDNA delivery, robotic library screening, ARPE19
[1] = test system: ARPE19 cells expressing EGFP; assay: EGFP-targeting siRNA delivery (GFP silencing vs siMOCK), ARPE19
Description: To generate an EGFP expressing HeLa cell line, HeLa cells were transfected with EGFP pDNA (pEGFP-C1, Clontech) and stable transfectants were selected with 400 μg/mL of G-418 (Millipore). Green clones were selected by epifluorescence microscopy and tested for EGFP expression stability through several passages. […] All other EGFP-expressing cell lines were obtained in a similar way from parent non-EGFP-expressing cell lines.
Cells expressing EGFP were seeded in a 96 well plate the day before the experiment at a concentration of 50,000 cell/mL (100 μL/w) in DMEM+10% FBS+1% Gln-Abt. For robotic library screening, the delivery of an EGFP-targeting siRNA (EGFP: enhanced green fluorescent protein, Ambion® Silencer® GFP Positive Control siRNA (siGFP) (AM4626)) in six different cell lines expressing EGFP was performed. […] The mixture was shaken for 30 min at room temperature (rt) before the addition to the cells. The cell medium was aspirated, and cells were washed twice with PBS. Finally, 50 μL of the solution of siRNA/amphiphile complexes were added to the cells and incubated for 4 h. After transfection, the medium was replaced by 100 μL of fresh DMEM supplemented with 10% FBS. The fluorescence knockdown was quantified after 72 h in a plate reader, by comparison with cells transfected with a non-targeting siRNA control (siMOCK, Silencer™ Negative Control No. 1 siRNA (siMOCK) (AM4611)). EGFP knockdown was compared with Lipofectamine® RNAiMAX silencing efficiency (30-60% depending on cell line, defined with a numeric value in the below tables). All experiments were done in triplicate.
(§1) Tables 1-7: RLuc (pDNA) or EGFP (mRNA) expression levels were normalized to Lipofectamine reagents (value=1) and expressed as fold-times signal increase. In the case of siRNA, the siRNA treated cells fluorescence was compared with siMOCK control fluorescence, while Cas9-RNP mediated knockout was measured against the fluorescence of untreated cells. In both siRNA and Cas9-RNP, values are expressed as % fluorescence reduction. Amphiphile concentration was 5 μM in all cases. All experiments were performed in triplicate.
Tables 20-25 show the mean (triplicates) percentage of GFP-silencing, accounted by fluorescence intensity decrease relative to a non-targeting siRNA (siMOCK) control, measured after the transfection of siRNA by different amphiphiles at different concentrations in a variety of cell lines. Background values, accounted by untreated control cells, were subtracted for processing.

Hek293 cells = assay: EGFP mRNA delivery, robotic library screening, Hek293
Description: Cells were seeded in a 96 well plate the day before the experiment at a concentration of 50,000 cell/mL (100 μL/w) in DMEM+10% FBS+1% Gln-Abt. For robotic library screening, the delivery of EGFP-mRNA (from TriLink, fully substituted with 5-methoxyuridine, capped and polyadenylated; TriLink, CleanCap® EGFP mRNA (5moU), ref. L-7201) in six different cell lines was performed. Amphiphilic molecule stock solutions were prepared in DMSO as described above and diluted in DMEM to afford a range of concentrations. The solutions of EGFP-mRNA/amphiphilic molecule complexes were freshly prepared prior to the transfection experiments. 35 μL of the corresponding amphiphile were added to 10 μL of a solution of EGFP-mRNA at 10 ng/μL in DMEM. The mixture was shaken for 30 min at room temperature before the addition to the cells. The cell medium was aspirated, and cells were washed with PBS twice. Cells were covered with 39 μL of DMEM and 11 μL of the complex's solution were added to the cells and incubated for 4 h (final concentration of peptide=2.5, 5 and 10 μM; final concentration of EGFP-mRNA=25 ng/well). After the incubation, the medium was replaced by 100 μL of fresh DMEM supplemented with 10% FBS. The total EGFP fluorescence was quantified after 72 h in a well plate reader. Amphiphile transfection efficiency was compared and normalized to Lipofectamine® MessengerMax efficiency (value of 1 in Tables 1-5 and 7; double underlined numbers). All experiments were done in triplicate.
as §1
Tables 14-19 show the mean (triplicates) fluorescence intensity measured after the transfection of EGFP mRNA by different amphiphiles at different concentrations in a variety of cell lines. Background fluorescence values, accounted by untreated control cells, were subtracted for processing.

Ac-RHLK*RHK*RRLK*RH-NH2 (Ac-RHLKRHKRRLKRH-NH2; not fully specified (residues 4, 7, 11); printed as Ac-RHLK*RHK*RRLK*RH-NH2; also: linker on K* not given here) [13(3His)]
mean luminescent intensity (RLuc pDNA) (ARPE19 cells; Dodecanal, 5 μM): 11495 RLU
mean luminescent intensity (RLuc pDNA) (ARPE19 cells; Dodecanal, 10 μM): 366 RLU
mean luminescent intensity (RLuc pDNA) (ARPE19 cells; Myristoleyl, 5 μM): 32411 RLU
mean luminescent intensity (RLuc pDNA) (ARPE19 cells; Myristoleyl, 10 μM): 1998 RLU
mean luminescent intensity (RLuc pDNA) (ARPE19 cells; Myristoleyl, 15 μM): 28 RLU
mean luminescent intensity (RLuc pDNA) (ARPE19 cells; Oleyl, 5 μM): 6754 RLU
mean luminescent intensity (RLuc pDNA) (ARPE19 cells; Palmitoleyl, 5 μM): 40629 RLU
mean luminescent intensity (RLuc pDNA) (ARPE19 cells; Palmitoleyl, 10 μM): 6400 RLU
mean luminescent intensity (RLuc pDNA) (ARPE19 cells; Petroselinyl, 5 μM): 33797 RLU
mean luminescent intensity (RLuc pDNA) (ARPE19 cells; Petroselinyl, 10 μM): 10940 RLU
mean luminescent intensity (RLuc pDNA) (ARPE19 cells; Petroselinyl, 15 μM): 3792 RLU
percentage of GFP-silencing relative to siMOCK ([1]; Dodecanal, 5 μM): 16%
percentage of GFP-silencing relative to siMOCK ([1]; Dodecanal, 15 μM): 22%
percentage of GFP-silencing relative to siMOCK ([1]; Myristoleyl, 10 μM): 42%
percentage of GFP-silencing relative to siMOCK ([1]; Myristoleyl, 15 μM): 30%
percentage of GFP-silencing relative to siMOCK ([1]; Oleyl, 10 μM): 43%
percentage of GFP-silencing relative to siMOCK ([1]; Oleyl, 15 μM): 41%
percentage of GFP-silencing relative to siMOCK ([1]; Palmitoleyl, 10 μM): 49%
percentage of GFP-silencing relative to siMOCK ([1]; Palmitoleyl, 15 μM): 25%
percentage of GFP-silencing relative to siMOCK ([1]; Petroselinyl, 5 μM): 13%
percentage of GFP-silencing relative to siMOCK ([1]; Petroselinyl, 10 μM): 56%
percentage of GFP-silencing relative to siMOCK ([1]; Petroselinyl, 15 μM): 30%
mean fluorescence intensity (EGFP mRNA) (Hek293 cells; Dodecanal, 5 μM): 1878
mean fluorescence intensity (EGFP mRNA) (Hek293 cells; Dodecanal, 10 μM): 1687
mean fluorescence intensity (EGFP mRNA) (Hek293 cells; Myristoleyl, 2.5 μM): 2039
mean fluorescence intensity (EGFP mRNA) (Hek293 cells; Myristoleyl, 5 μM): 1952
mean fluorescence intensity (EGFP mRNA) (Hek293 cells; Myristoleyl, 10 μM): 3636
mean fluorescence intensity (EGFP mRNA) (Hek293 cells; Oleyl, 2.5 μM): 2611
mean fluorescence intensity (EGFP mRNA) (Hek293 cells; Oleyl, 5 μM): 735
mean fluorescence intensity (EGFP mRNA) (Hek293 cells; Oleyl, 10 μM): 1303
mean fluorescence intensity (EGFP mRNA) (Hek293 cells; Petroselinyl, 2.5 μM): 3629
mean fluorescence intensity (EGFP mRNA) (Hek293 cells; Petroselinyl, 5 μM): 2394
mean fluorescence intensity (EGFP mRNA) (Hek293 cells; Petroselinyl, 10 μM): 2964

Ac-RK*LRRK*L-NH2 (Ac-RK(NHNH2)LRRK(NHNH2)L-NH2; not fully specified; printed as Ac-RK*LRRK*L-NH2; also: K*2,K*6: native or modified lysine (ε-amide to a linker)) [Peptide 7.2]
mean luminescent intensity (RLuc pDNA) (ARPE19 cells; Dodecanal, 5 μM): 567 RLU
mean luminescent intensity (RLuc pDNA) (ARPE19 cells; Dodecanal, 10 μM): 424 RLU
mean luminescent intensity (RLuc pDNA) (ARPE19 cells; Dodecanal, 15 μM): 462 RLU
mean luminescent intensity (RLuc pDNA) (ARPE19 cells; Myristoleyl, 5 μM): −485 RLU
mean luminescent intensity (RLuc pDNA) (ARPE19 cells; Myristoleyl, 10 μM): −509 RLU
mean luminescent intensity (RLuc pDNA) (ARPE19 cells; Myristoleyl, 15 μM): −568 RLU
percentage of GFP-silencing relative to siMOCK ([1]; Dodecanal, 5 μM): 4%
percentage of GFP-silencing relative to siMOCK ([1]; Dodecanal, 10 μM): 10%
percentage of GFP-silencing relative to siMOCK ([1]; Dodecanal, 15 μM): 20%
percentage of GFP-silencing relative to siMOCK ([1]; Myristoleyl, 5 μM): 14%
percentage of GFP-silencing relative to siMOCK ([1]; Myristoleyl, 10 μM): 28%
mean fluorescence intensity (EGFP mRNA) (Hek293 cells; Dodecanal, 2.5 μM): 251
mean fluorescence intensity (EGFP mRNA) (Hek293 cells; Dodecanal, 5 μM): 71
mean fluorescence intensity (EGFP mRNA) (Hek293 cells; Dodecanal, 10 μM): 648
mean fluorescence intensity (EGFP mRNA) (Hek293 cells; Myristoleyl, 2.5 μM): 2550
mean fluorescence intensity (EGFP mRNA) (Hek293 cells; Myristoleyl, 5 μM): 1729
mean fluorescence intensity (EGFP mRNA) (Hek293 cells; Myristoleyl, 10 μM): 591
